Drawing on patent US7875647B2, “Heteroaryl-pyrazole derivatives as cannabinoid CB1 receptor antagonists” (Green Cross Corporation, priority 2006, dated 2011), this text covers IC50 for 31 compounds.

T1 sequence (P20272 whole entry): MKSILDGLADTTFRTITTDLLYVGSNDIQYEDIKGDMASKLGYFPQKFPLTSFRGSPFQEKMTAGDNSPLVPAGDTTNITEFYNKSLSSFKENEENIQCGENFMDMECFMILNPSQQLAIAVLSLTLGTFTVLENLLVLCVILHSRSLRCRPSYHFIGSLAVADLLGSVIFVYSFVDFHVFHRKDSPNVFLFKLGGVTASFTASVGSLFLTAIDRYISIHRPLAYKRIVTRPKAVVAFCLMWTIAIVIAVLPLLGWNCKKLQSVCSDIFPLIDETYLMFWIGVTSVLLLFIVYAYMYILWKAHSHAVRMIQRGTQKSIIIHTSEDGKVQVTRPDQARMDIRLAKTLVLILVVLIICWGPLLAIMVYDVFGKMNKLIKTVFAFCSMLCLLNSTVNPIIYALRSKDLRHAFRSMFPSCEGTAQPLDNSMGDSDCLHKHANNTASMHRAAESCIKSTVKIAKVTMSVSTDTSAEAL

The first assay concerns the target T1, Cannabinoid-1 receptor (CB1R) (Rattus norvegicus, UniProt P20272).
T1 construct: The tissue obtained from the brain of SD rats was homogenized; from tissue; host or cells: brain of SD rats (membrane pellet of the homogenate)
Nature of the assay: Cannabinoid-1 receptor (CB1R) binding affinity assay ([3H]CP-55940, rat CB-1 receptor binding protocol). Conditions: IC50(nM), brain tissue of SD rats, [3H]CP-55940, 30° C. 60 min.
Take `CCc1c(-c2nnc(C3(c4cccc(Cl)c4)CC3)o2)nn(-c2ccc(Cl)cc2Cl)c1-c1ccc(Br)cc1` [Example 273, 2-(5-(4-bromophenyl)-1-(2,4-dichlorophenyl)-4-ethyl-1H-pyrazol-3-yl)-5-(1-(3-chlorophenyl)cyclopropyl)-1,3,4-oxadiazole]: the IC50 – broadly, the midpoint of a concentration-inhibition curve – stood at 2.32 nM.

Regarding `CCCC(C)c1nnc(-c2nn(-c3ccc(Cl)cc3Cl)c(-c3ccc(Cl)cc3)c2CC)s1` (stereo not shown) [Example 412, 2-(5-(4-chlorophenyl)-1-(2,4-dichlorophenyl)-4-ethyl-1H-pyrazol-3-yl)-5-(pentan-2-yl)-1,3,4-thiadiazole], the IC50 turned out to be 11 nM.

The same assay, now with this note: brain tissue of SD rats, [3H]CP-55940, 30° C. 60 min; read-out: IC50.
Consider `FC(F)(F)C1(c2nnc(-c3nn(-c4ccc(Cl)cc4Cl)c(-c4ccc(Cl)cc4)c3Cn3cncn3)o2)CCC1` [Example 321, 2-(4-((1H-1,2,4-triazol-1-yl)methyl)-5-(4-chlorophenyl)-1-(2,4-dichlorophenyl)-1H-pyrazol-3-yl)-5-(1-(trifluoromethyl)cyclobutyl)-1,3,4-oxadiazole], for which the IC50 was determined as 1.73 nM.

With `Clc1ccc(-c2c(Cn3cncn3)c(-c3nnc(C4(c5ccc(Cl)cc5)CCCC4)o3)nn2-c2ccc(Cl)cc2Cl)cc1` [Example 324, 2-(4-((1H-1,2,4-triazol-1-yl)methyl)-5-(4-chlorophenyl)-1-(2,4-dichlorophenyl)-1H-pyrazol-3-yl)-5-(1-(4-chlorophenyl)cyclopentyl)-1,3,4-oxadiazole], the IC50 was determined as 4.66 nM.

For the compound `COc1ccc(C2(c3nnc(-c4nn(-c5ccc(Cl)cc5Cl)c(-c5ccc(Cl)cc5)c4C)s3)CC2)cc1` [Example 458, 2-(5-(4-chlorophenyl)-1-(2,4-dichlorophenyl)-4-methyl-1H-pyrazol-3-yl)-5-(1-(4-methoxyphenyl)cyclopropyl)-1,3,4-thiadiazole], the IC50 was 25.8 nM.

As to “2-(1-benzylcyclopropyl)-5-(5-(4-bromophenyl)-1-(2,4-dichlorophenyl)-4-ethyl-1H-pyrazol-3-yl)-1,3,4-oxadiazole [Example 271]”, the IC50 was 5.88 nM.

As for `CC(C)(C)c1nnc(-c2nn(-c3ccc(Cl)cc3Cl)c(-c3ccc(Cl)cc3)c2CO)s1` [Example 523, (3-(5-tert-butyl-1,3,4-thiadiazol-2-yl)-5-(4-chlorophenyl)-1-(2,4-dichlorophenyl)-1H-pyrazol-4-yl)methanol], the IC50 came out at 6.88 nM.

For `CCCCC(C)c1nnc(-c2nn(-c3ccc(Cl)cc3Cl)c(-c3ccc(Cl)cc3)c2C)s1` (stereo not shown) [Example 379, 2-(5-(4-Chlorophenyl)-1-(2,4-dichlorophenyl)-4-methyl-1H-pyrazol-3-yl)-5-(hexan-2-yl)-1,3,4-thiadiazole], the IC50 is 16.9 nM.

Consider `CC(C)(C)c1nnc(-c2nn(-c3ccc(Cl)cc3Cl)c(-c3ccc(Br)cc3)c2CF)o1` [Example 222, 2-(5-(4-bromophenyl)-1-(2,4-dichlorophenyl)-4-(fluoromethyl)-1H-pyrazol-3-yl)-5-tert-butyl-1,3,4-oxadiazole], for which the IC50 was determined as 7.99 nM.

As for `CCCCC(C)(C)c1nnc(-c2nn(-c3ccccc3Cl)c(-c3ccc(Cl)cc3)c2C)s1` [Example 415, 2-(1-(2-chlorophenyl)-5-(4-chlorophenyl)-4-methyl-1H-pyrazol-3-yl)-5-(2-methylhexan-2-yl)-1,3,4-thiadiazole], the IC50 amounted to 8.02 nM.

For `Cc1c(-c2nc(C(C)C)n(C)n2)nn(-c2ccc(Cl)cc2Cl)c1-c1ccc(Cl)cc1` [Example 634, 3-(5-(4-chlorophenyl)-1-(2,4-dichlorophenyl)-4-methyl-1H-pyrazol-3-yl)-5-isopropyl-1-methyl-1H-1,2,4-triazole], the IC50 turned out to be 289 nM.

Turning to `CCc1c(-c2nnnn2C2CCCC2)nn(-c2ccc(Cl)cc2Cl)c1-c1ccc(Br)cc1` [Example 609, 5-(5-(4-bromophenyl)-1-(2,4-dichlorophenyl)-4-ethyl-1H-pyrazol-3-yl)-1-cyclopentyl-1H-tetrazole], the IC50 came out at 14.2 nM.

As to `Cc1c(-c2nnc(-c3ccco3)o2)nn(-c2ccc(Cl)cc2Cl)c1-c1ccc(Cl)cc1` [Example 8, 2-(5-(4-chlorophenyl)-1-(2,4-dichlorophenyl)-4-methyl-1H-pyrazol-3-yl)-5-(furan-2-yl)-1,3,4-oxadiazole], the IC50 was found to be 112 nM.

Take `Cc1c(-c2nnc(-c3ccccc3)s2)nn(-c2ccc(Cl)cc2Cl)c1-c1ccc(Cl)cc1` [Example 356, 2-(5-(4-Chlorophenyl)-1-(2,4-dichlorophenyl)-4-methyl-1H-pyrazol-3-yl)-5-phenyl-1,3,4-thiadiazole]: the IC50 came out at 231 nM.

Turning to `Clc1ccc(-c2c(Cn3cncn3)c(-c3nnc(C4(c5ccc(Cl)cc5)CC4)o3)nn2-c2ccc(Cl)cc2Cl)cc1` [Example 313, 2-(4-((1H-1,2,4-triazol-1-yl)methyl)-5-(4-chlorophenyl)-1-(2,4-dichlorophenyl)-1H-pyrazol-3-yl)-5-(1-(4-chlorophenyl)cyclopropyl)-1,3,4-oxadiazole], the IC50 stood at 2.21 nM.

`Cc1c(-c2nnc(C3CCCO3)s2)nn(-c2ccc(Cl)cc2Cl)c1-c1ccc(Cl)cc1` (stereo not shown) [Example 359, 2-(5-(4-Chlorophenyl)-1-(2,4-dichlorophenyl)-4-methyl-1H-pyrazol-3-yl)-5-(tetrahydrofuran-2-yl)-1,3,4-thiadiazole]: the IC50 came out at 27.6 nM.

`Cc1c(-c2nnc(C(C)(C)C)s2)nn(-c2ccc(Cl)cc2Cl)c1-c1ccc(Cl)cc1` [Example 372, 2-tert-Butyl-5-(5-(4-chlorophenyl)-1-(2,4-dichlorophenyl)-4-methyl-1H-pyrazol-3-yl)-1,3,4-thiadiazole]: the IC50 was 25.2 nM.

In the case of `CC(C)(C)c1nnc(-c2nn(-c3ccc(Cl)cc3Cl)c(-c3ccc(Cl)cc3)c2Cn2cccc2)o1` [Example 299, 2-(4-((1H-pyrrol-1-yl)methyl)-5-(4-chlorophenyl)-1-(2,4-dichlorophenyl)-1H-pyrazol-3-yl)-5-tert-butyl-1,3,4-oxadiazole], the IC50 turned out to be 38.4 nM.

Take `Cc1c(-c2nnc(C3CCC3)s2)nn(-c2ccccc2Cl)c1-c1ccc(Cl)cc1` [Example 409, 2-(1-(2-chlorophenyl)-5-(4-chlorophenyl)-4-methyl-1H-pyrazol-3-yl)-5-cyclobutyl-1,3,4-thiadiazole]: the IC50 amounted to 58.1 nM.

Take `CCCCc1nnc(-c2nn(-c3ccc(Cl)cc3Cl)c(-c3ccc(Cl)cc3)c2C)s1` [Example 355, 2-Butyl-5-(5-(4-chlorophenyl)-1-(2,4-dichlorophenyl)-4-methyl-1H-pyrazol-3-yl)-1,3,4-thiadiazole]: the IC50 is 46 nM.

On to `Cc1c(-c2nnc(C3CC4CCC3C4)o2)nn(-c2ccc(Cl)cc2Cl)c1-c1ccc(Cl)cc1` (stereo not shown) [Example 52, 2-(bicyclo[2.2.1]heptan-2-yl)-5-(5-(4-chlorophenyl)-1-(2,4-dichlorophenyl)-4-methyl-1H-pyrazol-3-yl)-1,3,4-oxadiazole], for which the IC50 amounted to 12.7 nM.

As to `Cc1c(-c2nnc(C(C)Cc3ccccc3)s2)nn(-c2ccc(Cl)cc2Cl)c1-c1ccc(Cl)cc1` (stereo not shown) [Example 385, 2-(5-(4-chlorophenyl)-1-(2,4-dichlorophenyl)-4-methyl-1H-pyrazol-3-yl)-5-(1-phenylpropan-2-yl)-1,3,4-thiadiazole], the IC50 was determined as 33.6 nM.

Turning to `Cc1c(-c2nnc(C(C)(C)C)s2)nn(-c2ccc(Cl)cc2Cl)c1-c1cccc(Cl)c1` [Example 434, 2-tert-butyl-5-(5-(3-chlorophenyl)-1-(2,4-dichlorophenyl)-4-methyl-1H-pyrazol-3-yl)-1,3,4-thiadiazole], the IC50 was 172 nM.

For `Clc1ccc(-c2c(Cn3cncn3)c(-c3nnc(C4(c5ccc(Cl)cc5)CCC4)s3)nn2-c2ccc(Cl)cc2Cl)cc1` [Example 513, 2-(4-((1H-1,2,4-triazol-1-yl)methyl)-5-(4-chlorophenyl)-1-(2,4-dichlorophenyl)-1H-pyrazol-3-yl)-5-(1-(4-chlorophenyl)cyclobutyl)-1,3,4-thiadiazole], the IC50 is 2.34 nM.

On to `Cc1c(-c2nnc(C3(c4ccc(Cl)cc4Cl)CC3)s2)nn(-c2ccc(Cl)cc2Cl)c1-c1ccc(Cl)cc1` [Example 459, 2-(5-(4-chlorophenyl)-1-(2,4-dichlorophenyl)-4-methyl-1H-pyrazol-3-yl)-5-(1-(2,4-dichlorophenyl)cyclopropyl)-1,3,4-thiadiazole], for which the IC50 is 10.8 nM.

With `CCc1c(-c2nnc(C3(c4ccc(OC)cc4)CC3)o2)nn(-c2ccc(Cl)cc2Cl)c1-c1ccc(Br)cc1` [Example 175, 2-(5-(4-bromophenyl)-1-(2,4-dichlorophenyl)-4-ethyl-1H-pyrazol-3-yl)-5-(1-(4-methoxyphenyl)cyclopropyl)-1,3,4-oxadiazole], the IC50 came out at 5.71 nM.

As to `CCc1c(-c2nnc(C3(c4ccc(F)cc4)CC3)s2)nn(-c2ccc(Cl)cc2Cl)c1-c1ccc(Br)cc1` [Example 492, 2-(5-(4-bromophenyl)-1-(2,4-dichlorophenyl)-4-ethyl-1H-pyrazol-3-yl)-5-(1-(4-fluorophenyl)cyclopropyl)-1,3,4-thiadiazole], the IC50 came out at 2.24 nM.

In the case of `Cc1c(-c2nnc(Cc3ccccc3)s2)nn(-c2ccc(Cl)cc2Cl)c1-c1ccc(Cl)cc1` [Example 354, 2-benzyl-5-(5-(4-chlorophenyl)-1-(2,4-dichlorophenyl)-4-methyl-1H-pyrazol-3-yl)-1,3,4-thiadiazole], the IC50 was determined as 26 nM.

Consider `CCc1c(-c2nnc(C3(c4ccc(Cl)cc4)CC3)o2)nn(-c2ccccc2Cl)c1-c1ccc(Cl)cc1` [Example 144, 2-(1-(2-chlorophenyl)-5-(4-chlorophenyl)-4-ethyl-1H-pyrazol-3-yl)-5-(1-(4-chlorophenyl)cyclopropyl)-1,3,4-oxadiazole], for which the half-inhibitory concentration (IC50) was 2.16 nM.

As for `Cc1c(-c2nnc(-c3cnccn3)o2)nn(-c2ccc(Cl)cc2Cl)c1-c1ccc(Cl)cc1` [Example 10, 2-(5-(4-chlorophenyl)-1-(2,4-dichlorophenyl)-4-methyl-1H-pyrazol-3-yl)-5-(pyrazin-2-yl)-1,3,4-oxadiazole], the IC50 was found to be 196 nM.

Regarding `Cc1c(-c2nnc(CC3CCCCC3)s2)nn(-c2ccc(Cl)cc2Cl)c1-c1ccc(Cl)cc1` [Example 365, 2-(5-(4-Chlorophenyl)-1-(2,4-dichlorophenyl)-4-methyl-1H-pyrazol-3-yl)-5-(cyclohexylmethyl)-1,3,4-thiadiazole], the IC50 is 20.4 nM.
